#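 96-well plates; 48 h exposure; 5 concentrations. Endpoints by linear interpolation between flanking doses. Not reached: highest tested concentration assigned. GI50: concentration for 50% inhibition of growth. The concentration for full growth arrest is given as TGI.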 Residues, ends and D or L forms follow the SMILES beside them. *: point of attachment. Cbz = O=C(OCc1ccccc1)*
# Key:
# Test in all cases: growth of human tumour cells (NCI), 48 h
# NCI-H460 lung = system: NCI-H460 lung
# K-562 leukemia = system: K-562 leukemia
# NCI-H23 lung = system: NCI-H23 lung
# SN12C renal = system: SN12C renal
# SF-268 CNS = system: SF-268 CNS
# HOP-92 NSCLC = system: HOP-92 NSCLC
# RXF 393 renal = system: RXF 393 renal
# BT-549 breast = system: BT-549 breast
# SF-539 CNS = system: SF-539 CNS
# SK-MEL-5 melanoma = system: SK-MEL-5 melanoma
Structure (SMILES),GI50 (NCI-H460 lung) [µM],TGI (NCI-H460 lung) [µM],GI50 (K-562 leukemia) [µM],TGI (K-562 leukemia) [µM],GI50 (NCI-H23 lung) [µM],TGI (NCI-H23 lung) [µM],GI50 (SN12C renal) [µM],TGI (SN12C renal) [µM],GI50 (SF-268 CNS) [µM],TGI (SF-268 CNS) [µM],GI50 (HOP-92 NSCLC) [µM],TGI (HOP-92 NSCLC) [µM],GI50 (RXF 393 renal) [µM],TGI (RXF 393 renal) [µM],GI50 (BT-549 breast) [µM],TGI (BT-549 breast) [µM],GI50 (SF-539 CNS) [µM],TGI (SF-539 CNS) [µM],GI50 (SK-MEL-5 melanoma) [µM],TGI (SK-MEL-5 melanoma) [µM]
CN(C)CCS(=O)(=O)Nc1cc(-c2ccc3ncc(C#N)c(Nc4ccc(F)c(Cl)c4)c3c2)cnc1Cl,0.612,3.72,0.229,> 50.5,0.159,0.469,0.232,> 100,0.122,0.692,0.0322,0.409,0.0953,0.348,0.107,0.485,0.212,1.17,0.118,0.244
CCOC(=O)c1cc(NS(=O)(=O)c2ccc(C)cc2)cc(C(=O)OCC)c1,37.5,> 100,40.2,> 100,38.5,> 100,78.1,> 100,40.4,> 100,32,> 100,> 100,> 100,34.8,> 100,49.4,> 100,31,> 100
O=C1c2c(Cl)c(Cl)c(Cl)c(Cl)c2C(=O)C2(Cl)CC=CCC12Cl (stereo not given),3.09,11,1.09,3.59,1.84,3.94,1.78,3.22,1.76,3.2,2.03,3.87,1.63,3.01,1.85,3.38,2.06,4.05,1.77,3.79
Cc1cccc(Cl)c1NC(=O)c1cnc(Nc2cc(N3CCOCC3)cc(S(C)(=O)=O)c2)s1,> 9.52,> 10,0.00569,> 10,> 10,> 10,0.455,> 10,0.354,> 10,0.0294,0.303,0.103,0.994,9.75,> 10,0.306,> 10,> 8.89,> 10
O=C1NC(=NCCc2ccccn2)S/C1=C\c1ccc2ncccc2c1,8.27,> 25,9.99,> 25,11.1,> 25,9.33,> 25,11.4,> 25,9.33,> 25,8.97,> 25,10.5,> 25,6.68,> 25,10.8,> 25
COC(=O)CNc1nc(N(C)O)nc(N(C)O)n1,0.557,> 100,2.43,> 100,11.5,> 100,9.17,> 100,1.83,> 100,> 100,> 100,4.85,> 100,13.8,> 100,3.48,> 100,2.2,15.9
COc1cc2c(c(OC)c1OC)-c1c(c3ccc([N+](=O)[O-])cc3c(=O)n1CCCN)C2=O,15.9,> 50,0.478,1.33,2.35,10.2,4,11.5,13.2,34.6,7.21,15.8,2.05,3.86,14.4,46.9,1.38,3.28,7.15,15.8
CC(C)C[C@@H](C=O)NC(=O)[C@H](CC(C)C)NC(=O)[C@H](CC(C)C)NC(=O)OCc1ccccc1 (Cbz-Leu-Leu-Leu-aldehyde),0.455,2.02,0.368,> 100,0.422,2.99,0.315,1.01,0.297,1.45,0.319,0.797,0.199,0.371,0.337,1.25,0.256,0.703,0.349,1.08
CN(C)Cc1c(C(=O)NCCOc2ccc(C(=O)NO)cc2)oc2ccccc12,0.221,> 100,0.307,> 100,0.267,2.06,0.459,> 100,0.464,6.02,0.0603,0.424,0.197,0.643,0.519,13.8,0.385,18,0.159,0.347
CCCN(CCC)c1ccc(C=O)c(C)c1,46.5,> 100,68.7,> 100,35.8,> 100,56.7,> 100,68,> 100,16.4,64.7,34.3,> 100,26.9,> 100,> 70.5,> 100,21.2,> 61.9
CC1(C)CCC(C)(C)c2cc(NC(=O)c3ccc(C(=O)O)cc3)ccc21,,> 62.7,,> 100,,53.9,,93,,> 100,,64.1,,> 79.9,,68.1,,> 51,,> 93.2
COc1cc(/C=C/C(=O)c2c(-c3ccc(F)cc3)nc3sc(C)nn23)cc(OC)c1OC,1.94,4.08,2.61,15,2.98,9.55,2.48,8.65,2.74,8.96,1.6,8.64,2.11,6.66,2.55,7.09,2.09,4.54,1.86,3.99
